Experimental data reported in ChEMBL document CHEMBL1201862, “PubChem BioAssay data set” (2004).
Activity calls are given as the source filed them.

Experiments:
[1] = target: T1, Ubiquitin-conjugating enzyme E2 N (Homo sapiens, UniProt P61088); assay type: functional;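 further: Dose-response confirmation in a TR-FRET assay detecting UBC13-driven polyubiquitin chain formation, inhibition measured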
T1 sequence (P61088 whole entry): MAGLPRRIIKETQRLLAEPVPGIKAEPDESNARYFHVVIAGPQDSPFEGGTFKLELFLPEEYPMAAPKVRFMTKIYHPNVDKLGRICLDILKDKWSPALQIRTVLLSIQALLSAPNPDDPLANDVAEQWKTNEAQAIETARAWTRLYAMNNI

[2] = target: T2, DNA repair and recombination protein RAD54-like (Homo sapiens, UniProt Q92698); experiment: inhibitors of human RAD54 branch migration, confirmation, biochemical, fluorescence, cherry-picked samples, dose series (AID 651657); assay type: functional
T2 sequence (Q92698 whole entry): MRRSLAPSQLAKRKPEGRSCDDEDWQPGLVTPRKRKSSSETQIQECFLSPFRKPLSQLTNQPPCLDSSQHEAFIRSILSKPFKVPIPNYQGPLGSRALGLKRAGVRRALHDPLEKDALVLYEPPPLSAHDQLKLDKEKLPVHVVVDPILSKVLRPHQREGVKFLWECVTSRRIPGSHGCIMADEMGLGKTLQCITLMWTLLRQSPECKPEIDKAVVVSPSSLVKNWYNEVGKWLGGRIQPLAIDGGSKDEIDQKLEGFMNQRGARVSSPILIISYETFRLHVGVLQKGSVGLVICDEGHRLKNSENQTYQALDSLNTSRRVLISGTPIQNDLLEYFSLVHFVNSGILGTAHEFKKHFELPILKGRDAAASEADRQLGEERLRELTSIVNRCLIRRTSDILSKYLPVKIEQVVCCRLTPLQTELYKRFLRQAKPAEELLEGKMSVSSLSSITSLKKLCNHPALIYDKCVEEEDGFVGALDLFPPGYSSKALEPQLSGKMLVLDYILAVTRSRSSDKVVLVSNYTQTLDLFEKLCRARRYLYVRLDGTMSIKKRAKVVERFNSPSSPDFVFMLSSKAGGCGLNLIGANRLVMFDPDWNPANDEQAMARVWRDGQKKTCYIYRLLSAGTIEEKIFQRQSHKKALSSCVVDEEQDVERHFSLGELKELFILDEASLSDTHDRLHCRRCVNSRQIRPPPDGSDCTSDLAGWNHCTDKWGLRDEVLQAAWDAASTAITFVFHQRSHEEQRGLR

Leucine aminopeptidase = target: T3, Leucine aminopeptidase (Plasmodium falciparum 3D7, UniProt Q8IL11); experiment: P. falciparum M17LAP inhibitors, primary screen, biochemical, fluorogenic H-Leu-NHMec substrate, 1536-well (AID 1619); assay type: functional
T3 sequence (Q8IL11 whole entry): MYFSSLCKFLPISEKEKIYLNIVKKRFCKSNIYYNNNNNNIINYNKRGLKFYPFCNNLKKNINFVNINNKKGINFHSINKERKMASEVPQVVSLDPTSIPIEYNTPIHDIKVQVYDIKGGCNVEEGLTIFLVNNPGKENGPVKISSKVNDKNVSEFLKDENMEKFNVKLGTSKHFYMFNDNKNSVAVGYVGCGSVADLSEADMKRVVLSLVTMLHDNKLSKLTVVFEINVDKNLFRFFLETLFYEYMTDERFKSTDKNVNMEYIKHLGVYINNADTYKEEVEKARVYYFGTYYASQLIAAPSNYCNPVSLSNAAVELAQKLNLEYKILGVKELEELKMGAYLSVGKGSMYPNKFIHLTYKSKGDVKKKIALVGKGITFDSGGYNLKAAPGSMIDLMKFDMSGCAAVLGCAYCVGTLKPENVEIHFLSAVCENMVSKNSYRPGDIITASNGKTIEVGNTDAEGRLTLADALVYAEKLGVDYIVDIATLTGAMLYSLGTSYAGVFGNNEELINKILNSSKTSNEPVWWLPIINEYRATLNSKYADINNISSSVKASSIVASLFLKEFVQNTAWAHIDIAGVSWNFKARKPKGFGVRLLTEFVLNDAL

Aspartyl aminopeptidase = target: T4, Aspartyl aminopeptidase (Plasmodium falciparum 3D7, UniProt Q8I2J3); experiment: Counterscreen for inhibitors of M1 and M17 aminopeptidases: QFRET-based biochemical high throughput dose response assay for inhibitors of the Plasmodium falciparum M18 Aspartyl Aminopeptidase (PFM18AAP). [Related PubChem assays: 1619 (Screening assay (M17LAP inhibitors).), 1445 (Screening assay (M1AAP inhibitors).)]
T4 sequence (Q8I2J3 whole entry): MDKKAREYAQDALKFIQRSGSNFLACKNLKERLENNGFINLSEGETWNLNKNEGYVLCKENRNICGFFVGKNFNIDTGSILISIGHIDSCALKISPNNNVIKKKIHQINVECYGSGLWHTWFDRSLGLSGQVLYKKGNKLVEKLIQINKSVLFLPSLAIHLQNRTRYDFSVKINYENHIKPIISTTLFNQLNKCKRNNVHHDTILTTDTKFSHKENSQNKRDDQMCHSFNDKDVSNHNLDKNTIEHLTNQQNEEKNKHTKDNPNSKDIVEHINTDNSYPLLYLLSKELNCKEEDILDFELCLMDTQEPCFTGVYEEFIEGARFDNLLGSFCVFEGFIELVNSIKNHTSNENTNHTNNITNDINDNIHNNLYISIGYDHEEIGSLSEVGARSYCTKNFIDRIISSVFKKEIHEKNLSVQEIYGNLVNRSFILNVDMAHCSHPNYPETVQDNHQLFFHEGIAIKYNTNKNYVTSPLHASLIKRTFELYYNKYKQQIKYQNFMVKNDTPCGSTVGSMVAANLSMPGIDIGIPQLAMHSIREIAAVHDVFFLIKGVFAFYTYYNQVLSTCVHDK

Procathepsin L = Procathepsin L (Homo sapiens, UniProt P07711); experiment: cathepsin L inhibitors, dose response, counter-screen for M1/M17 aminopeptidase inhibitor project, biochemical, QFRET, 1536-well (AID 2214)
Chain of Procathepsin L (P07711 whole entry): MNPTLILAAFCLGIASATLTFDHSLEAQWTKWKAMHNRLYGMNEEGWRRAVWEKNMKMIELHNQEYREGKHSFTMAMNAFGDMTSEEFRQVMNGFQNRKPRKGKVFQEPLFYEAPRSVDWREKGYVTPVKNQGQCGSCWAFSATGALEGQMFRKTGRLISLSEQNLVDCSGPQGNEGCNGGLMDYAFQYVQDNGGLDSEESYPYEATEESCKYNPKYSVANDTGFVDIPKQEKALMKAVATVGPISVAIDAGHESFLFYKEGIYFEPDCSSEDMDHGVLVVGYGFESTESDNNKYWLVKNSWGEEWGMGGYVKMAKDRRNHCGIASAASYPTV

Caspase-6 = target: T5, Caspase-6 (Homo sapiens, UniProt P55212); experiment: human caspase-6 inhibitors, dose response, biochemical, VEID-R110 fluorescence, cherry-pick (AID 720632)
T5 sequence (P55212 whole entry): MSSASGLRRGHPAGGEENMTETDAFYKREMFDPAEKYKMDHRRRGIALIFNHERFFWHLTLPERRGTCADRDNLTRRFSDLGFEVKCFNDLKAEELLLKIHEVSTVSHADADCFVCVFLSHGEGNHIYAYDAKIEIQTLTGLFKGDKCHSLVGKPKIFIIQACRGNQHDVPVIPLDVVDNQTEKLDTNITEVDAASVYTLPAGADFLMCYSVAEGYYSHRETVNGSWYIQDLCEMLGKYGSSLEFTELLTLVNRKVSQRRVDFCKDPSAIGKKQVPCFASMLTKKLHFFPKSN

Estrogen receptor = target: T6, Estrogen receptor (Homo sapiens, UniProt P03372);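 further: potency for inhibiting coactivator peptide recruitment to the receptor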
T6 sequence (P03372 whole entry): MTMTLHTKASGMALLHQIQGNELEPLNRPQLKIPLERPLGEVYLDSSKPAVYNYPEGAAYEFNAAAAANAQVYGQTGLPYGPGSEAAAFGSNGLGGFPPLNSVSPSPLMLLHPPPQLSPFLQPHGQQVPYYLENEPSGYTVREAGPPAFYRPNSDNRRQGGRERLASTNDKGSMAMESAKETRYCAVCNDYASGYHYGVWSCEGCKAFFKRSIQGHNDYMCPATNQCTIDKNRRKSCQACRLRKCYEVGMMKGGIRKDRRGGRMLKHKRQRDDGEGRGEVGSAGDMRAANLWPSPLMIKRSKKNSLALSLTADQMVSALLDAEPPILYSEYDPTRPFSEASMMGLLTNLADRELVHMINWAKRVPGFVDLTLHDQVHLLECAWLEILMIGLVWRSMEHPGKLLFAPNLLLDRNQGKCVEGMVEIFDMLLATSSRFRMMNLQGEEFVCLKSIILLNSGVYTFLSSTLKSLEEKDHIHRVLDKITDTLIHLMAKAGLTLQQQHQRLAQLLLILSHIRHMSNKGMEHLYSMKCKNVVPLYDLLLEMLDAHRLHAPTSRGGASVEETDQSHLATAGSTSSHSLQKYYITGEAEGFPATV

Estrogen receptor beta = Estrogen receptor beta (Homo sapiens, UniProt Q92731);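 further: recombinant ER-beta bound to coactivator SRC1 peptide in presence of estradiol agonist; inhibitors block coactivator peptide binding and lower the FRET signal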
Chain of Estrogen receptor beta (Q92731 whole entry): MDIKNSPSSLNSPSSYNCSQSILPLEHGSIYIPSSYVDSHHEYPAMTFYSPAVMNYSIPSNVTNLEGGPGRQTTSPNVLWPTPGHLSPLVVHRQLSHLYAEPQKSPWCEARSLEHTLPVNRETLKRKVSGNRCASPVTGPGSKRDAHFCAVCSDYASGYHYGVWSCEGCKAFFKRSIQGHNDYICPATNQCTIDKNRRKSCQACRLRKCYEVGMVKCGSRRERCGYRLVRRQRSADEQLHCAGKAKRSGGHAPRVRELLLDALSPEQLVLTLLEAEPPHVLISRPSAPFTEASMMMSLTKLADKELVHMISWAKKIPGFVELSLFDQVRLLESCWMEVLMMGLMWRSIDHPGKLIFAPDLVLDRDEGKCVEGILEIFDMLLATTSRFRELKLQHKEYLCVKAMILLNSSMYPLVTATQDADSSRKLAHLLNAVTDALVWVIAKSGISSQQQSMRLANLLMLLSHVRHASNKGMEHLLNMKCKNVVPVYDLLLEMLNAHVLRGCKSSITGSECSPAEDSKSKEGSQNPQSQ

[3] = target: T7, Long-chain-fatty-acid--AMP ligase FadD28 (Mycobacterium tuberculosis, UniProt P9WQ59); experiment: Fluorescence polarization aasay to screen for inhibitors that compete for the binding of FadD28 to a bisubstrate Measured in Biochemical System Using Plate Reader - 2147-01_Inhibitor_Dose_CherryPick_Activity.; assay type: functional, Mycobacterium tuberculosis H37Rv
T7 sequence (P9WQ59 whole entry): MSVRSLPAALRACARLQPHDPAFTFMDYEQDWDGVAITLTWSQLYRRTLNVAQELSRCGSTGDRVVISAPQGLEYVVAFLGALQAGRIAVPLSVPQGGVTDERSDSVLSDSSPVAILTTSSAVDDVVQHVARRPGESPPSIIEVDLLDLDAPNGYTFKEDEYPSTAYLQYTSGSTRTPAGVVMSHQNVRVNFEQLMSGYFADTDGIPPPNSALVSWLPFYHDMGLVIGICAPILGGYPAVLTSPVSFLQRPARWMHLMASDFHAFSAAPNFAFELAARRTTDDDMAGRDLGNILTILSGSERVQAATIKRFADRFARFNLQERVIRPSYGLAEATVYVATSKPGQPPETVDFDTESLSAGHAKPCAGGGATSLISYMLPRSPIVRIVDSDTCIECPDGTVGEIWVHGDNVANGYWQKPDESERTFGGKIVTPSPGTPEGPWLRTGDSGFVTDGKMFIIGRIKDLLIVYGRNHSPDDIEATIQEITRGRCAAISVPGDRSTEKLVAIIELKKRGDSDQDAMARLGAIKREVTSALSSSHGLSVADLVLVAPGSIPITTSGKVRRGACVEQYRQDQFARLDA

[4] = Luminescence Cell-Based Dose Retest to Confirm Inhibitors of Cancer Stem Cells. [Related pubchem assays (depositor defined):AID2717, AID2721]; assay type: functional; conditions: Homo sapiens
[5] = target: Disintegrin and metalloproteinase domain-containing protein 17 (Homo sapiens, UniProt P78536); experiment: ADAM17 protease inhibitors, dose response, counter-screen for ADAM10 exosite inhibitor project, biochemical, quenched FRET substrate (AID 743253)
Chain of Disintegrin and metalloproteinase domain-containing protein 17 (P78536 whole entry, the tested form may be a part): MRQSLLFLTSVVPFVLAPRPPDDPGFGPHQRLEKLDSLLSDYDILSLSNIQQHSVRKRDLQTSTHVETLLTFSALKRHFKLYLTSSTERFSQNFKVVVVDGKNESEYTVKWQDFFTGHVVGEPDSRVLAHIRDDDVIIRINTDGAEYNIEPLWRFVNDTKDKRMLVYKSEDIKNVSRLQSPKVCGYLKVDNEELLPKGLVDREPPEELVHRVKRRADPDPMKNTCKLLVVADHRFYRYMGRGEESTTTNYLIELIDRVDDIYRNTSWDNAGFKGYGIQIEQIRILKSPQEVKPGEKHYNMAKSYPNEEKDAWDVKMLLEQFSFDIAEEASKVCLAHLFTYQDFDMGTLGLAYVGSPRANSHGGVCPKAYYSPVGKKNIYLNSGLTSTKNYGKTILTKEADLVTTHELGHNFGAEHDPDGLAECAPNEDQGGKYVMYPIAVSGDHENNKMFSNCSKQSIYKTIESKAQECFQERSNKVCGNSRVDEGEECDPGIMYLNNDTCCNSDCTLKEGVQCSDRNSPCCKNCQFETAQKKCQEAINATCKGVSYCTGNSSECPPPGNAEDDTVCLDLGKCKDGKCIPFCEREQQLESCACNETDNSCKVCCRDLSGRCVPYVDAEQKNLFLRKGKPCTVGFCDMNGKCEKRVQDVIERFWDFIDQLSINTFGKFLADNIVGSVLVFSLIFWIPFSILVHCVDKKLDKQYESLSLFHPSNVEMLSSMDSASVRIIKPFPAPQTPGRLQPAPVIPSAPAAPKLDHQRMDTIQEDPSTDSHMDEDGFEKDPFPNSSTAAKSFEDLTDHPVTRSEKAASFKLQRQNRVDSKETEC

[6] = A Cell Based Secondary Assay To Explore Cytotoxicity of Compounds that Sensitize Mycobacterium Tuberculosis to Beta-Lactam Antibiotics.; assay type: functional

Q: Which results are given for `CC1CCCCN1CCNC(=O)c1cc2c(=O)n(C)c3ccccc3c2n1C` (stereo unspecified)?
A: IC50 [1]: > 20 µM (inactive); AC50 [2]: 33 µM (active)

Q: Which results are given for `O=C(O)C1CC=CCC1C(=O)Nc1cc(Cl)ccc1Cl` (stereo unspecified)?
A: IC50 (Leucine aminopeptidase): 6.22 µM (active); IC50 (Aspartyl aminopeptidase): > 73.5 µM (not active); IC50 (Procathepsin L): > 59.6 µM (not active)

Q: Which AC50 (Caspase-6) does the source give for `CC(N)C(=O)NC(C(=O)NC(C)C(=O)Nc1cccc2ccccc12)C(C)C` (stereo unspecified) here?
A: Its AC50 is 10.7 µM (active).

Q: For `COC(=O)c1cnn2c(C(F)(F)F)cc(-c3ccco3)nc12`, which IC50 (Estrogen receptor) is on record?
A: The IC50 was 42.4 µM (not active).

Q: What about the IC50 (Estrogen receptor beta) of the same compound?
A: The IC50 was 25.9 µM (active).

Q: With `O=C(O)[C@@H]1[C@@H](CO)[C@@H]2Cn3c(ccc(/C=C/c4ccccc4)c3=O)[C@@H]2N1Cc1ccc2c(c1)OCO2` as the compound, how does the AC50 (Caspase-6) read?
A: Its AC50 is 41.3 µM (active).

Q: With `COc1ccc(/C=C2\SC(=O)N(CC(=O)Nc3cccnc3)C2=O)cc1OC` as the compound, how does the AC50 [3] read?
A: Its AC50 is 32 µM (inactive).

Q: What does the source list for `O=C1CC(N(CCc2ccccc2)C(=S)Nc2cc(Cl)ccc2Cl)C(=O)N1c1c(Cl)cccc1Cl` (stereo unspecified)?
A: AC50 [4]: 1.61 µM (active); IC50 [5]: > 69.5 µM (inactive)

Q: For `Cn1c(=O)c(C(=O)COC(=O)c2cc(C3CC3)nc3ccccc23)c(N)n(Cc2ccccc2)c1=O`, which CC50 [6] is on record?
A: Its CC50 is > 40 µM (active).

Q: Which CC50 [6] does the source give for `Cc1ccc(C(=O)Nc2ccc(N3CCN(C(=O)c4cccs4)CC3)cc2)c(Cl)c1` here?
A: Its CC50 is > 40 µM (active).

Q: With `O=C(NN1C(=O)/C(=C/c2cccc(O)c2)SC1=S)c1ccccc1O` as the compound, how does the AC50 [3] read?
A: The AC50 was 66.2 µM (active).

Q: With `O=C(NC1CCS(=O)(=O)C1)c1c(NC(=O)C2COc3ccccc3O2)sc2c1CCCC2` (stereo unspecified) as the compound, how does the IC50 (Estrogen receptor) read?
A: The IC50 was > 50 µM (not active).

Q: Which CC50 [6] does the source give for `CC1(C)Cc2c(C#N)c(SCc3ccccc3)nc(N3CCOCC3)c2CO1` here?
A: Its CC50 is > 40 µM (active).

Q: Which IC50 (Leucine aminopeptidase) does the source give for `CCOc1ccc(NC(=O)Nc2cccs2)cc1` here?
A: The IC50 was 3.22 µM (active).

Q: And the IC50 (Aspartyl aminopeptidase)?
A: The IC50 was > 73.5 µM (not active).

Q: And the IC50 (Procathepsin L)?
A: Its IC50 is > 59.6 µM (not active).

Q: Which AC50 [3] does the source give for `Cc1nc2c(C(=O)NCCC3=CCCCC3)cnn2c(O)c1Cl` here?
A: Its AC50 is > 100 µM (inactive).

Q: Which results are given for `COc1cc(NC(=O)CSc2nnc3c(C)cc4cc(C)cc(C)c4n23)c(C(=O)O)cc1OC`?
A: IC50 (Leucine aminopeptidase): 6 µM (active); IC50 (Aspartyl aminopeptidase): > 73.5 µM (not active); IC50 (Procathepsin L): > 59.6 µM (not active)

Q: With `COc1cc(SC)ccc1C(=O)OC(C)C(=O)NC1CCCC1` (stereo unspecified) as the compound, how does the AC50 (Caspase-6) read?
A: Its AC50 is 24.6 µM (active).

Q: Which AC50 [2] does the source give for `CCCCN(C)CCN=C(S)Nc1ccc2nc(N3CCN(CC)CC3)cc(C)c2c1` here?
A: Its AC50 is 16.2 µM (active).
